Our source for the inhibition and melting point values is US20090197859A1 (Pfizer Inc., priority 2008, published 2009).

Series [1] has as its target T1, cloned human 5-HT6 receptor (Homo sapiens, UniProt P50406).
T1 construct: host or cells: HeLa cells, G-418 selection, membrane preparation
The experiment in a line: 5-HT6 Receptor Binding Assay ([3H]-LSD radioligand, SPA). The conditions noted are these: read-out: 5HT6 % inh @ 1 uM. The method, then: 5-HT6 Receptor Binding Assay
Hela cells containing the cloned human 5-HT6 receptor were acquired from Dr. David R. Sibley's laboratory in National Institute of Health (see Sibley, D. R., J. Neurochemistry, 66, 47-56, 1996). Cells were grown in high glucose Dulbecco's modified Eagle's medium, supplemented with L-glutamine, 0.5% sodium pyruvate, 0.3% penicillin-streptomycin, 0.025% G-418 and 5% Gibco fetal bovine serum and then were harvested, when confluent, in cold phosphate buffered saline.
Harvested intact cells were washed once in cold phosphate-buffered saline. The cells were pelleted and resuspended in 100 ml of cold 50 mM Tris, 5 mM EDTA and 5 mM EGTA, pH 7.4. Homogenization was with a Vir Tishear generator, 4 cycles for 30 seconds each at setting 50. The homogenized cells were centrifuged at […] for 10 minutes and the supernatant was removed. The pellet was resuspended in 100 ml of the above buffer and rehomogenized for 2 cycles. The rehomogenized cells were then centrifuged at […] for 10 minutes and the supernatant was removed. The combined supernatant (200 ml) was centrifuged at 23,000 RPM (80,000×g) for 1 hour in a Beckman Rotor (42.1 Ti). The membrane pellet was resuspended in […] of assay buffer containing HEPES 20 mM, MgCl2 10 mM, NaCl 150 mM, EDTA 1 mM, pH 7.4 and stored frozen in aliqouts at −70° C.
The radioligand binding assay used [^3H]-lysergic acid diethylamide (LSD). The assay was carried out in Wallac 96-well sample plates by the addition of 11 μl of the test sample at the appropriate dilution (the assay employed 11 serial concentrations of samples run in duplicate), 11 μl of radioligand, and 178 μl of a washed mixture of WGA-coated SPA beads and membranes in binding buffer. The plates were shaken for about 5 minutes and then incubated at room temperature for 1 hour. The plates were then loaded into counting cassettes and counted in a Wallac MicroBeta Trilux scintillation counter.
Binding Constant Determination may be obtained by performing serial dilutions, e.g., eleven dilutions, of test compounds into assay plates using the PE/Cetus Pro/Pette pipetter. These dilutions are followed by radioligand and the bead-membrane mixture prepared as described above. After obtaining the specifically bound cpm, the data are fit to a one-site binding model using GraphPad Prism ver. 2.0. Estimated IC50 values are converted to Ki values using the Cheng-Prusoff equation (Cheng, Y. C. et al., Biochem. Pharmacol., 22, 3099-108, 1973).

Each structure is given as a SMILES string.

T1 sequence (P50406 whole entry): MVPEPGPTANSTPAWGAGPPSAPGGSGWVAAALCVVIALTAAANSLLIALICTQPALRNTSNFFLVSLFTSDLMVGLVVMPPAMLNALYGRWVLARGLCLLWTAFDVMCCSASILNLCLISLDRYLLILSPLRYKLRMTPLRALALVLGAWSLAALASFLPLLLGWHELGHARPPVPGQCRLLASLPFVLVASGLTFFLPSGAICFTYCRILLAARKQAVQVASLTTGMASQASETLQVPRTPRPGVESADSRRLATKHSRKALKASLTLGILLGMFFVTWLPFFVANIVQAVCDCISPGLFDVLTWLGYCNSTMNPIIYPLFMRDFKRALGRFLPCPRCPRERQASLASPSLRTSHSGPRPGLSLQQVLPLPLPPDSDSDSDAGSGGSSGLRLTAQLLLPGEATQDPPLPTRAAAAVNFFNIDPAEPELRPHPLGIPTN

By melting point is commonly meant the temperature of the solid-liquid transition. On to `Cc1cccc(O[C@H]2CCCN(C(=O)c3cccc(N4CCCN(C)CC4)n3)C2)c1` [Example 86, [6-(4-Methyl-[1,4]diazepan-1-yl)-pyridin-2-yl]-((S)-3-m-tolyloxy-piperidin-1-yl)-methanone], for which the melting point fell in the range of 118 to 120 °C. Further, in series [1], the inhibition at 1 µM turned out to be 99.5%.
The matching figures for `CN1CCN(c2cccc(C(=O)N3CCCC[C@@H]3c3ccccc3F)n2)CC1` [Example 57, [(R)-2-(2-Fluoro-phenyl)-piperidin-1-yl]-[6-(4-methyl-piperazin-1-yl)-pyridin-2-yl]-methanone]: 111.7 to 112 °C and 94%.
Consider `Cc1ccc([C@H]2CCCCN2C(=O)c2cccc(N3CCN(C)CC3)n2)cc1` [Example 66, [6-(4-Methyl-piperazin-1-yl)-pyridin-2-yl]-((R)-2-p-tolyl-piperidin-1-yl)-methanone], for which the melting point was 143.3 to 144 °C. Besides, the inhibition at 1 µM in series [1] amounted to 82.1%.
The matching figures for `CN1CCN(c2cccc(C(=O)N3CCCC[C@@H]3c3cccc(F)c3)n2)CC1` [Example 55, [(R)-2-(3-Fluoro-phenyl)-piperidin-1-yl]-[6-(4-methyl-piperazin-1-yl)-pyridin-2-yl]-methanone]: 122.7 to 123 °C and 94.2%.
For `CN1CCCN(c2cccc(C(=O)N3CC[C@H](Oc4ccccc4Cl)C3)n2)CC1` [Example 69, [(S)-3-(2-Chloro-phenoxy)-pyrrolidin-1-yl]-[6-(4-methyl-[1,4]diazepan-1-yl)-pyridin-2-yl]-methanone] the same measures were 90 to 92 °C and 97.7%.
For `O=C(c1cccc(N2CCCNCC2)n1)N1CC[C@H](Oc2ccc(F)cc2)C1` [Example 25, (6-[1,4]Diazepan-1-yl-pyridin-2-yl)-[(S)-3-(4-fluoro-phenoxy)-pyrrolidin-1-yl]-methanone] the same measures were 72 to 74 °C and 75.4%.
For the compound `Cc1c(F)cccc1C1CCN(C(=O)c2cccc(N3CCN(C)CC3)n2)CC1` [Example 104, [4-(3-Fluoro-2-methyl-phenyl)-piperidin-1-yl]-[6-(4-methyl-piperazin-1-yl)-pyridin-2-yl]-methanone], the melting point lay in the range of 128.6 to 129.2 °C. Also, the inhibition at 1 µM in series [1] is 101%.
For `Cc1ccc(F)cc1C1CCN(C(=O)c2cccc(N3CCN(C)CC3)n2)CC1` [Example 103, [4-(5-Fluoro-2-methyl-phenyl)-piperidin-1-yl]-[6-(4-methyl-piperazin-1-yl)-pyridin-2-yl]-methanone] the same measures were 85.1 to 86.2 °C and 101%.
`CN1CCN(c2cccc(C(=O)N3CCC[C@H](Oc4cccc(F)c4)C3)n2)CC1` [Example 75, [(S)-3-(3-Fluoro-phenoxy)-piperidin-1-yl]-[6-(4-methyl-piperazin-1-yl)-pyridin-2-yl]-methanone]: the melting point is 84 to 86 °C. Also, the inhibition at 1 µM in series [1] was found to be 97.3%.
`O=C(c1cccc(N2CCCNCC2)n1)N1CCC[C@@H](Oc2cccc(F)c2)C1` [Example 50, (6-[1,4]Diazepan-1-yl-pyridin-2-yl)-[(R)-3-(3-fluoro-phenoxy)-piperidin-1-yl]-methanone]: the melting point was 172 to 174 °C. The inhibition at 1 µM in series [1] was 89.6%.
The matching figures for `CN1CCCN(c2cccc(C(=O)N3CCC[C@H](Oc4cccc(Cl)c4)C3)n2)CC1` [Example 87, [(S)-3-(3-Chloro-phenoxy)-piperidin-1-yl]-[6-(4-methyl-[1,4]diazepan-1-yl)-pyridin-2-yl]-methanone]: 110 to 112 °C and 98.9%.
For `CN1CCN(c2cccc(C(=O)N3CCC(c4ccc(F)cc4F)CC3)n2)CC1` [Example 102, [4-(2,4-Difluoro-phenyl)-piperidin-1-yl]-[6-(4-methyl-piperazin-1-yl)-pyridin-2-yl]-methanone] the same measures were 148.6 to 149.5 °C and 98.7%.
For `CN1CCN(c2cccc(C(=O)N3CCCC[C@@H]3c3ccc(F)cc3)n2)CC1` [Example 67, [(R)-2-(4-Fluoro-phenyl)-piperidin-1-yl]-[6-(4-methyl-piperazin-1-yl)-pyridin-2-yl]-methanone] the same measures were 130.8 to 131.5 °C and 79.1%.
On to `CN1CCCN(c2cccc(C(=O)N3CCCC[C@@H]3c3cccc(F)c3)n2)CC1` [Example 80, [(R)-2-(3-Fluoro-phenyl)-piperidin-1-yl]-[6-(4-methyl-[1,4]diazepan-1-yl)-pyridin-2-yl]-methanone], for which the melting point lay in the range of 155 to 156.2 °C. The inhibition at 1 µM in series [1] worked out at 91.7%.
For `Cc1cc(F)ccc1C1CCN(C(=O)c2cccc(C3CCN(C)C3)n2)CC1` (centres unmarked) [Example 106, [4-(4-Fluoro-2-methyl-phenyl)-piperidin-1-yl]-[6-(1-methyl-pyrrolidin-3-yl)-pyridin-2-yl]-methanone] the same measures were 116.2 to 117.4 °C and 93.6%.
The matching figures for `CN1CCN(c2cccc(C(=O)N(C)Cc3ccccc3F)n2)CC1` [Example 64, 6-(4-Methyl-piperazin-1-yl)-pyridine-2-carboxylic acid (2-fluoro-benzyl)-methyl-amide]: 80 to 81 °C and 87.6%.
Regarding `Cc1cccc(OC2CCN(C(=O)c3cccc(C4CCN(C)C4)n3)CC2)c1` (centres unmarked) [Example 17, [6-(1-Methyl-pyrrolidin-3-yl)-pyridin-2-yl]-(4-m-tolyloxy-piperidin-1-yl)-methanone], the melting point fell in the range of 89 to 90 °C. The inhibition at 1 µM in series [1] amounted to 96.4%.
For `Cc1cc(F)ccc1C1CCN(C(=O)c2cccc(N3CCN(C)CC3)n2)CC1` [Example 105, [4-(4-Fluoro-2-methyl-phenyl)-piperidin-1-yl]-[6-(4-methyl-piperazin-1-yl)-pyridin-2-yl]-methanone] the same measures were 156.4 to 157.7 °C and 97.6%.
The matching figures for `CN1CCN(c2cccc(C(=O)N3CCCC(c4ccccc4F)C3)n2)CC1` (centres unmarked) [Example 58, [3-(2-Fluoro-phenyl)-piperidin-1-yl]-[6-(4-methyl-piperazin-1-yl)-pyridin-2-yl]-methanone]: 118 to 119 °C and 88.9%.
Turning to `Cc1cccc([C@@H](C)N(C)C(=O)c2cccc(N3CCN(C)CC3)n2)c1` [Example 93, 6-(4-Methyl-piperazin-1-yl)-pyridine-2-carboxylic acid methyl-((R)-1-m-tolyl-ethyl)-amide], the melting point was 126 to 128 °C. In addition, the inhibition at 1 µM in series [1] was found to be 99.4%.
For `Cc1cccc(C2CCCCN2C(=O)c2cccc(N3CCCNCC3)n2)c1` (centres unmarked) [Example 34, (6-[1,4]Diazepan-1-yl-pyridin-2-yl)-(2-m-tolyl-piperidin-1-yl)-methanone] the same measures were 138.5 to 139 °C and 95.3%.
In the case of `Cc1cccc(O[C@H]2CCN(C(=O)c3cccc(N4CCCNCC4)n3)C2)c1` [Example 42, (6-[1,4]Diazepan-1-yl-pyridin-2-yl)-((S)-3-m-tolyloxy-pyrrolidin-1-yl)-methanone], the melting point was in the range of 116 to 118 °C. Further, the inhibition at 1 µM in series [1] is 99.4%.
